Source: patent EP0558245A1, “Heterobicyclic compounds as antagogists of alpha-1 adrenergic and SHT1A receptors” (priority 1992, dated 1993)
Counter-ions that a name gives are not always drawn. Like-named read-outs stand apart in the source and are kept apart here.

Key:
[1] = biological target: α₁ receptors; experiment: [3H]prazosin binding (α1 receptors), rat cerebral cortex membranes; details: rat cerebral cortex crude membranes, [3H]prazosin 0.35 nM, 25°C 30 min; read-out: Receptor Binding IC50 (nM) α1
Method: Rat cerebral cortices were homogenized in 50 volumes of original wet weight of ice-cold 50 mM Tris-HCl buffer pH 7.4. The homogenates were centrifuged at 48,000 x g for 10 minutes, and the pellets were resuspended in the same volume of ice-cold buffer, centrifuged and resuspended two more times. The final pellets obtained were resuspended in the same volume of buffer and incubated according to the conditions reported in the table below.
The incubations were terminated after the appropriate time (see table) by rapid filtration through Whatman GF/B filters using a Brandel cell harvester. The filters were washed twice with 15 ml of ice-cold buffer (see table). The radioactivity retained on the filters was determined by liquid scintillation counting. Nonspecific binding (which amounted generally to 10-30%) was evaluated by adding high concentrations of the specific displacers (see table). All the compounds were initially tested at 1x10⁻⁶ M concentration, and in the presence of significant displacing activity, a complete competition curve was generated (down to a concentration of 10⁻¹¹ M). All the samples were run in triplicate.

[2] = biological target: T1, 5HT1A receptors (Rattus norvegicus, UniProt P19327); experiment: [3H]8-OH-DPAT binding (5HT1A receptors), rat hippocampus membranes; details: rat hippocampus crude membranes, [3H]8-OH-DPAT 1.0 nM, 25°C 30 min; read-out: Receptor Binding IC50 (nM) 5-HT1a
T1 construct: Rat hippocampi were homogenized; from tissue; host or cells: rat hippocampus membranes
T1 sequence (P19327 1-422): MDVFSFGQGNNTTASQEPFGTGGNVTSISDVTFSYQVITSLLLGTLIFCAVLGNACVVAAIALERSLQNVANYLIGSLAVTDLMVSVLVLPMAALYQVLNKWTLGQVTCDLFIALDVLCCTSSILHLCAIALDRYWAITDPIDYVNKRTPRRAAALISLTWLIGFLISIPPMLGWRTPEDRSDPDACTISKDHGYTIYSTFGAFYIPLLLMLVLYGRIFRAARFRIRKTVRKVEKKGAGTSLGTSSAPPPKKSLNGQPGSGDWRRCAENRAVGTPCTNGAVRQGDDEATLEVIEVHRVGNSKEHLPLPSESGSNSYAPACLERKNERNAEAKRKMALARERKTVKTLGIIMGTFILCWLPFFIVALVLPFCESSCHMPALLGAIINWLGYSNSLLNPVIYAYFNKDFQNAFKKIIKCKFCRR

[3] = Acute toxicity in mice after intraperitoneal and oral administration; details: mouse, in vivo, female albino Swiss mice, mortality recorded 7 days after administration
Outline: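 Female albino Swiss mice (20-30 g) dosed i.p. or orally at four log-scaled doses in 0.5% Methocel (10 ml/kg), 4 mice/dose. Mortality recorded at 7 days; LD₅₀ with fiducial limits by Weil's method.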

[4] = test system: rat bladder strips; experiment: K+-induced contractions of rat bladder strips; type: cell-based; details: 80 mM KCl, drug added 30 minutes before
Method: The whole bladder of the rat was removed and immediately placed in Krebs solution warmed at 37°C. […] Each strip was placed in a 10 ml organ bath and connected, under a constant load of 1 g, to an isometric strain gauge (DY-1 Basile, Comerio, Varese, Italy). […] After a 60 minutes equilibration period the strips were exposed to 80 mM KCl (final concentration). […] When the tonic contraction was stable, the strips were washed and 30 minutes later a new contraction was induced. After having recorded two or more reproducible responses, one concentration of the tested drugs was added to the bath and 30 minutes later a new contraction was induced. The experimental groups consisted of at least two preparations taken from different animals for each concentration of drug tested. The IC₅₀ values of inhibition of agonist-induced contractions were evaluated by linear regression analysis.

[5] = test system: noradrenaline induced contraction of urethra; experiment: Effects on urethral contractions (noradrenaline-induced) in anaesthetized dogs; type: in vivo; details: for ED50: Canis lupus familiaris, iv, anaesthetized male beagle dogs, i.v. cumulative, active dose in inhibiting by 50% the noradrenaline induced contraction of urethra, read-out: Urethra ED50; for DBP/Urethra ratio: ratio between the active doses (selectivity index), * = non-selective: substantial effect on both urethra and DBP
Excerpt: (§1) In order to monitor systemic blood pressure (BP), a PE catheter was introduced into the aortic arch through the right common carotid artery.
(§2) A collateral of the left femoral vein was cannulated for infusion of anaesthetic, and the right femoral vein was cannulated for administration of drugs. For intrarterial (i.a.) injection of noradrenaline (NA), a PE catheter was introduced into the lower portion of abdominal aorta via the right external iliac artery. Through such procedure, NA was selectively distributed to the lower urinary tract. Via a midline laparotomy, the urinary bladder and proximal urethra were exposed. In order to prevent the filling of the bladder, the two ureters were cannulated and the urine led outside. In order to record the prostatic urethral pressure, a Mikro-tip catheter (6 F) was introduced into the bladder via the external urethral meatus, and withdrawn until the pressure transducer was positioned in the prostatic urethra. A ligature was secured between the neck of the bladder and urethra to isolate the response of the latter and avoid any interaction with the bladder. Another ligature was put around the Mikro-tip catheter at the external urethral meatus, to secure the catheter itself. After a stabilizing period following surgical procedure (30 min), in which arterial and prostatic urethral pressure were continuously monitored as basal values, i.a. administration of NA was made at intervals of 10 min. The dose of NA chosen was such to produce an increase of at least 100% in urethral pressure. The test compounds were administered i.v. in a cumulative manner with intervals of 15-20 min between administrations. I.a. injections of NA were repeated approximately 5 min. after every dosing of test compound. Dose response curves were constructed computing the percentage inhibition to the increase in urethral pressure (NA induced), and the percentage drop in blood pressure produced by the test compound.

[6] = test system: diastolic blood pressure; experiment: Effects on blood pressure in anaesthetized dogs; type: in vivo; details: Canis lupus familiaris, iv; anaesthetized male beagle dogs, i.v. cumulative; active dose in lowering diastolic blood pressure by 25%; read-out: DBP ED25
Excerpt: as §1, §2

[7] = ip, intraperitoneal, read-out: Acute Toxicity in Mice LD50 (mg/kg) i.p.
[8] = oral, read-out: Acute Toxicity in Mice LD50 (mg/kg) p.o.
[9] = phasic contraction, read-out: K+ Stimulation of Rat Bladder IC50 (μM) Contractions Phasic
[10] = tonic contraction, read-out: K+ Stimulation of Rat Bladder IC50 (μM) Contractions Tonic

| Structure (SMILES) | IC50 [1] | IC50 [2] | LD50 at 168 h [3, 7] | LD50 at 168 h [3, 8] | IC50 [4, 9] | IC50 [4, 10] | ED50 [5] | DBP/Urethra ratio [5] | ED25 [6] |
| --- | --- | --- | --- | --- | --- | --- | --- | --- | --- |
| COc1ccccc1N1CCN(CCCNC(=O)c2cccc3c(=O)c(C)c(-c4ccccc4)oc23)CC1 [Example 11, 8-{3-[4-(2-methoxyphenyl)-1-piperazinyl]-propylcarbamoyl}-3-methyl-4-oxo-2-phenyl-4H-1-benzopyran dihydrochloride hemihydrate] | 29 nM | 9 nM | 247 mg/kg | 297 mg/kg | 2.9 µM | 3 µM | 0.0014 mg/kg | 278.6 | 0.39 mg/kg |
| COc1ccccc1N1CCN(CCNC(=O)c2cccc3c(=O)c(C)c(-c4ccccc4)oc23)CC1 [Example 13, 8-{2-[4-(2-methoxyphenyl)-1-piperazinyl]-ethylcarbamoyl}-3-methyl-4-oxo-2-phenyl-4H-1-benzopyran monohydrochloride hemihydrate] | 68 nM | 229 nM | > 1000 mg/kg | > 3000 mg/kg | 10 µM | 10 µM | 0.016 mg/kg | 13.4 | 0.215 mg/kg |
| COc1ccccc1N1CCN(CC(O)c2cccc3c(=O)c(C)c(-c4ccccc4)oc23)CC1.Cl (stereo not shown) [Example 17, 8-{1-hydroxy-2-[4-(2-methoxyphenyl)-1-piperazinyl]-ethyl}-3-methyl-4-oxo-2-phenyl-4H-1-benzopyran hydrochloride] | 59 nM | 910 nM | 299 mg/kg | 608 mg/kg | 8.8 µM | 3.8 µM | 0.01 mg/kg | 0.6* | 0.0062 mg/kg |
| COc1ccccc1N1CCN(CCOCc2cccc3c(=O)c(C)c(-c4ccccc4)oc23)CC1.Cl.Cl [Example 27, 8-{2-[4-(2-methoxyphenyl)-1-piperazinyl]-ethoxymethyl}-3-methyl-4-oxo-2-phenyl-4H-1-benzopyran dihydrochloride] | 23 nM | 124 nM | 399 mg/kg | > 3000 mg/kg | 1 µM | 0.8 µM | 0.0032 mg/kg | 3.1* | 0.0098 mg/kg |
| COc1ccccc1N1CCN(CCCOc2cccc3c(=O)c(C)c(-c4ccccc4)oc23)CC1.Cl.Cl [Example 40, 8-{3-[4-(2-methoxyphenyl)-1-piperazinyl]-propoxy}-3-methyl-4-oxo-2-phenyl-4H-1-benzopyran dihydrochloride] | 75 nM | 83 nM | 140 mg/kg | 349 mg/kg | 0.5 µM | 0.9 µM | 0.011 mg/kg | 13.8 | 0.152 mg/kg |
| COc1ccccc1N1CCN(CCCCCOc2cccc3c(=O)c(C)c(-c4ccccc4)oc23)CC1.Cl [Example 42, 8-{5-[4-(2-methoxyphenyl)-1-piperazinyl]-pentyloxy}-3-methyl-4-oxo-2-phenyl-4H-1-benzopyran hydrochloride] | 111 nM | 39 nM | 459 mg/kg | 2160 mg/kg | 10 µM | 10 µM | 0.031 mg/kg | 13.0 | 0.404 mg/kg |
| COc1ccccc1N1CCN(CC(O)COc2cccc3c(=O)c(C)c(-c4ccccc4)oc23)CC1.Cl (stereo not shown) [Example 45, 8-{2-hydroxy-3-[4-(2-methoxyphenyl)-1-piperazinyl]-propoxy}-3-methyl-4-oxo-2-phenyl-4H-1-benzopyran hydrochloride] | 15 nM | 106 nM | 329 mg/kg | 1730 mg/kg |  |  | 0.0164 mg/kg | 11.3 | 0.186 mg/kg |
| COc1ccccc1N1CCN(CCCS(=O)(=O)c2cccc3c(=O)c(C)c(-c4ccccc4)oc23)CC1.Cl [Example 47, 8-{3-[4-(2-methoxyphenyl)-1-piperazinyl]-propylsulphonyl}-3-methyl-4-oxo-2-phenyl-4H-1-benzopyran hydrochloride] | 36 nM | 23 nM | 330 mg/kg | 1050 mg/kg | 2.7 µM | 5.2 µM | 0.035 mg/kg | 15.1 | 0.53 mg/kg |
